Assay results as given in US7183315B2, “Silver salts of sucrose-octasulphate” (Interalia S.R.L., priority 2001, dated 2007).

What was measured:
[1] = Solubility of the product; type: physicochemical; conditions: product of example 1
[2] = Stability in solid state and aqueous solution; type: physicochemical; conditions: obtained according to example 3
[3] = system: Staphylococcus Aureus ATCC 6538; test: Bacterial growth inhibition test in culture broth; type: cell-based; parameters: key to inhibition of S. aureus ATCC 6538 growth / inhibition of S. aureus ATCC 6538: − growth; + inhibition; conditions: for inhibition of S. aureus ATCC 6538: Table 2
Experimental: Serial dilutions of known titre of the two products SOS-Ag and Katoxyn, the latter containing Ag in the form of metallic silver (silver […]® collodial chemical), have been placed directly in contact with the test microorganism (Staphylococcus Aureus ATCC 6538) for incubation in culture broth under agitation. The effect of the substances on cellular growth has been measured by evaluating the absence of turbidity in the culture medium. The anti bacterial activity has been verified by the seeding of 1 ml of culture broth in an […] medium, with observations at 7, 14, 21, 28 days from the beginning of the experiment (tables 1 and 2).

[4] = system: Staphylococcus Aureus ATCC 6538; test: Bacterial growth inhibition test by diffusion in agar (seeded by inclusion, 8 mm wells); type: cell-based
Text: The inhibition of bacterial growth has been, in this case, evaluated on a confluent bacterial culture of Staphylococcus aureus ATCC 6538 obtained on solid medium, according to the seeding method for inclusion. Serial dilutions of the test products, of known Ag titre, have been deposited inside 8 mm diameter wells formed in the medium in direct contact with the bacteria Staphylococcus aureus ATCC 6538. The antibacterial activity of the products under test have been evaluated, after appropriate incubations, by measuring the halos of inhibition around each well (tables 3 and 4).

[5] = system: S. aureus ATCC 6538; test: Diffusion method in agar, seeded by inclusion, 8 mm wells, 72 h; type: cell-based, Staphylococcus aureus; conditions: 72 hours at 37° C.
Experimental: (§1) The characterisation of the antibacterial activity has been carried out using the method of diffusion in agar, placing the substances in contact with confluent bacterial cultures on solid medium. The experiments have been carried out according to two distinct methods: 1) wetting sterile cellulose disks, 13 mm in diameter with 100 μl of solutions at serial dilutions of the product of known Ag titre. […] 100 μl of the solutions containing the products at known concentrations of Ag are placed on the base of the wells, and the bacteriocidal activity is observed after 72 hours of incubation at 37° C. against a blank constituted of just the solvent used for the solubilisation of the products.

[6] = system: S. aureus ATCC 6538; test: Diffusion method in agar, cellulose disks of 13 mm; type: cell-based, Staphylococcus aureus; conditions: 72 hours at 37° C.
Experimental: as §1

[7] = system: Candida albicans; conditions: preservative in cosmetic preparations; cited from earlier work
[8] = system: Staphylococcus aureus; conditions: preservative in cosmetic preparations; cited from earlier work
[9] = system: Pseudomonas aeruginosa; conditions: preservative in cosmetic preparations; cited from earlier work

Compound: silver salts of sucrose-octasulphate [SOS-Ag]
- Solubility in organic solvents ([1]; organic solvents): particularly insoluable
- Solubility in water ([1]; water): very soluble
- stability in aqueous solution ([2]; aqueous solution): good stability
- stability in the solid state ([2]; solid state): good stability
- inhibition of S. aureus ATCC 6538 growth ([3]; Ag titre 1 × 10^−2 M, 7 days): +
- inhibition of S. aureus ATCC 6538 growth ([3]; Ag titre 1 × 10^−2 M, 14 days): +
- inhibition of S. aureus ATCC 6538 growth ([3]; Ag titre 1 × 10^−2 M, 21 days): +
- inhibition of S. aureus ATCC 6538 growth ([3]; Ag titre 1 × 10^−2 M, 28 days): +
- inhibition of S. aureus ATCC 6538 growth ([3]; Ag titre 1 × 10^−3 M, 7 days): +
- inhibition of S. aureus ATCC 6538 growth ([3]; Ag titre 1 × 10^−3 M, 14 days): +
- inhibition of S. aureus ATCC 6538 growth ([3]; Ag titre 1 × 10^−3 M, 21 days): +
- inhibition of S. aureus ATCC 6538 growth ([3]; Ag titre 1 × 10^−3 M, 28 days): +
- inhibition of S. aureus ATCC 6538 growth ([3]; Ag titre 1 × 10^−4 M, 7 days): −
- inhibition of S. aureus ATCC 6538 growth ([3]; Ag titre 1 × 10^−4 M, 14 days): −
- inhibition of S. aureus ATCC 6538 growth ([3]; Ag titre 1 × 10^−4 M, 21 days): −
- inhibition of S. aureus ATCC 6538 growth ([3]; Ag titre 1 × 10^−4 M, 28 days): −
- inhibition of S. aureus ATCC 6538 growth ([3]; Ag titre 1 × 10^−5 M, 7 days): −
- inhibition of S. aureus ATCC 6538 growth ([3]; Ag titre 1 × 10^−5 M, 14 days): −
- inhibition of S. aureus ATCC 6538 growth ([3]; Ag titre 1 × 10^−5 M, 21 days): −
- inhibition of S. aureus ATCC 6538 growth ([3]; Ag titre 1 × 10^−5 M, 28 days): −
- inhibition of S. aureus ATCC 6538 growth ([3]; Ag titre 5 × 10^−4 M, 7 days): −
- inhibition of S. aureus ATCC 6538 growth ([3]; Ag titre 5 × 10^−4 M, 14 days): −
- inhibition of S. aureus ATCC 6538 growth ([3]; Ag titre 5 × 10^−4 M, 21 days): −
- inhibition of S. aureus ATCC 6538 growth ([3]; Ag titre 5 × 10^−4 M, 28 days): −
- concentration of Ag at which the product has been effective / active ([3]; S. aureus ATCC 6538, summary of tables 1-4 (culture broth and agar diffusion)): 1 mM
- Halo of inhibition ([4]; Ag titre 1 × 10^−3 M, 8 mm wells): 13 mm
- Halo of inhibition ([4]; Ag titre 1 × 10^−4 M, 8 mm wells): 0 mm
- Halo of inhibition ([4]; Ag titre 5 × 10^−4 M, 8 mm wells): 0 mm
- Halo of inhibition ([5]; Ag titre 10^−2 M): 14.5 mm
- Halo of inhibition ([5]; Ag titre 10^−3 M): 14 mm
- Halo of inhibition ([5]; Ag titre 10^−4 M): 0 mm
- Halo of inhibition ([5]; Ag titre 10^−5 M): 0 mm
- Halo of inhibition ([6]; Ag titre 10^−2 M): 15.3 mm
- Halo of inhibition ([6]; Ag titre 10^−3 M): 12 mm
- Halo of inhibition ([6]; Ag titre 10^−4 M): 0 mm
- Halo of inhibition ([6]; Ag titre 10^−5 M): 0 mm

Compound: [Ag] [silver]
- concentration of silver showing activity [7]: 10^−5 M
- concentration of silver showing activity [8]: 10^−5 M
- concentration of silver showing activity [9]: 10^−5 M

Compound: CC1(C)S[C@@H]2[C@H](NC(=O)[C@H](N)c3ccccc3)C(=O)N2[C@H]1C(=O)O [ampicillin, reference compound]
- inhibition of S. aureus ATCC 6538 growth ([3]; positive control, Table 1, 7 days): +
- inhibition of S. aureus ATCC 6538 growth ([3]; positive control, Table 1, 14 days): +
- inhibition of S. aureus ATCC 6538 growth ([3]; positive control, Table 1, 21 days): +
- inhibition of S. aureus ATCC 6538 growth ([3]; positive control, Table 1, 28 days): +
- inhibition of S. aureus ATCC 6538 ([3]; positive control, 7 days): +
- inhibition of S. aureus ATCC 6538 ([3]; positive control, 14 days): +
- inhibition of S. aureus ATCC 6538 ([3]; positive control, 21 days): +
- inhibition of S. aureus ATCC 6538 ([3]; positive control, 28 days): +
- Halo of inhibition ([4]; Concentration 5 I.U./ml, positive control): 11 mm
- Halo of inhibition ([4]; Concentration 10 I.U./ml, positive control): 20 mm
- Halo of inhibition ([4]; Concentration 20 I.U./ml, positive control): 39 mm
